This is an account of results in patent publication US8846933B2, “N-link hydroxamic acid derivatives useful as antibacterial agents” (Pfizer Inc., priority 2009, dated 2014).

Assay [1] deals with Escherichia coli EC-1: VOGEL, mouse virulent. Briefly: MIC determination (CLSI), strain EC-1. It is filed as cell-based. Particulars: strain EC-1; generated in the same manner as in Table 4; unit assumed. As for the experimental part: (§1) The in vitro antibacterial activity of compounds described in the Examples was evaluated by minimum inhibitory concentration (MIC) testing according to Clinical and Laboratory Standards Institute (CLSI, formerly NCCLS) guidelines. See: Clinical and Laboratory Standards Institute. Methods for Dilution Antimicrobial Susceptibility Tests for Bacteria that Grow Aerobically; Approved Standard-Seventh Edition. CLSI document M7-A7 [ISBN 1-56238-587-9]. Clinical and Laboratory Standards Institute, 940 West Valley Road, Suite 1400, Wayne, Pa. 19087-1898 USA, 2006; also Clinical and Laboratory Standards Institute. Performance Standards for Antimicrobial Susceptibility Testing; Eighteenth Informational Supplement. CLSI document M100-S18 [ISBN1-56238-653-0].Clinical and Laboratory Standards Institute.
(§2) The following bacterial strains were used in these MIC determinations:
3) Escherichia coli EC-1: VOGEL, mouse virulent labeled as EC-1 in Tables 4 and 5;

In assay [2] the test system is Pseudomonas aeruginosa UI-18: Wild-type (PA-7). Briefly: MIC determination (CLSI), strain PA-7. It is filed as cell-based. Conditions: strain PA-7; generated in the same manner as in Table 4; unit assumed. As for the experimental part:
as §1, §2
1) Pseudomonas aeruginosa UI-18: Wild-type, labeled as PA-7 in Tables 4, and 5;

`COc1ccccc1-c1ccn(CCC(C)(C(=O)NO)S(C)(=O)=O)c(=O)c1` (stereo not drawn) [Example 120, N-hydroxy-4-[4-(2-methoxyphenyl)-2-oxopyridin-1(2H)-yl]-2-methyl-2-(methylsulfonyl)butanamide] had an EC-1 (MIC) in assay [1] of 64 µg/mL. Further, the PA-7 (MIC) in assay [2] stood at 16 µg/mL.

Consider `CC(CCn1ccc(-c2cc(F)cc(Cl)c2)cc1=O)(C(=O)NO)S(C)(=O)=O` (stereo not drawn) [Example 121, 4-[4-(3-chloro-5-fluorophenyl)-2-oxopyridin-1(2H)-yl]-N-hydroxy-2-methyl-2-(methylsulfonyl)butanamide], for which the EC-1 (MIC) in assay [1] amounted to 8 µg/mL. The molecule also returned a PA-7 (MIC) in assay [2] of 16 µg/mL.

As for `Cc1cc(F)ccc1-c1ccn(CCC(C)(C(=O)NO)S(C)(=O)=O)c(=O)c1` (stereo not drawn) [Example 122, 4-[4-(4-fluoro-2-methylphenyl)-2-oxopyridin-1(2H)-yl]-N-hydroxy-2-methyl-2-(methylsulfonyl)butanamide], the EC-1 (MIC) in assay [1] was determined as 16 µg/mL. Also, the PA-7 (MIC) in assay [2] stood at 8 µg/mL.

On to `COc1ccc(-c2ccn(CCC(C)(C(=O)NO)S(C)(=O)=O)c(=O)c2)c(F)c1F` (stereo not drawn) [Example 123, 4-[4-(2,3-difluoro-4-methoxyphenyl)-2-oxopyridin-1(2H)-yl]-N-hydroxy-2-methyl-2-(methylsulfonyl)butanamide], for which the EC-1 (MIC) in assay [1] was determined as 2 µg/mL. Moreover, in assay [2], the PA-7 (MIC) is 2 µg/mL.

`CC(CCn1ccc(-c2cnc3ccccc3c2)cc1=O)(C(=O)NO)S(C)(=O)=O` (stereo not drawn) [Example 124, N-hydroxy-2-methyl-2-(methylsulfonyl)-4-(2-oxo-4-quinolin-3-ylpyridin-1(2H)-yl)butanamide]: the EC-1 (MIC) in assay [1] was 16 µg/mL. This molecule also had a PA-7 (MIC) in assay [2] of 16 µg/mL.

With `CC(CCn1ccc(-c2cnc3ccccc3c2)cc1=O)(C(=O)NO)S(C)(=O)=O` (stereo not drawn) [Example 125, N-hydroxy-2-methyl-2-(methylsulfonyl)-4-(2-oxo-4-quinolin-3-ylpyridin-1(2H)-yl)butanamide], the EC-1 (MIC) in assay [1] worked out at 16 µg/mL. The molecule further registered a PA-7 (MIC) in assay [2] of 32 µg/mL.

In the case of `CCN(CC)C(=O)c1ccc(-c2ccn(CCC(C)(C(=O)NO)S(C)(=O)=O)c(=O)c2)cc1` (stereo not drawn) [Example 126, N,N-diethyl-4-{1-[4-(hydroxyamino)-3-methyl-3-(methylsulfonyl)-4-oxobutyl]-2-oxo-1,2-dihydropyridin-4-yl}benzamide], the EC-1 (MIC) in assay [1] is greater than 64 µg/mL. Also, the PA-7 (MIC) in assay [2] is greater than 64 µg/mL.

For `CC(=O)c1cccc(-c2ccn(CCC(C)(C(=O)NO)S(C)(=O)=O)c(=O)c2)c1` (stereo not drawn) [Example 127, 4-[4-(3-acetylphenyl)-2-oxopyridin-1(2H)-yl]-N-hydroxy-2-methyl-2-(methylsulfonyl)butanamide], in assay [1], the EC-1 (MIC) was found to be 16 µg/mL. Further, the PA-7 (MIC) in assay [2] is 32 µg/mL.

For the molecule `CC(CCn1ccc(-c2cc3nccc(Cl)c3s2)cc1=O)(C(=O)NO)S(C)(=O)=O` (stereo not drawn) [Example 128, 4-[4-(7-chlorothieno[3,2-b]pyridin-2-yl)-2-oxopyridin-1(2H)-yl]-N-hydroxy-2-methyl-2-(methylsulfonyl)butanamide], the EC-1 (MIC) in assay [1] was 32 µg/mL. In assay [2], this molecule gave a PA-7 (MIC) of 64 µg/mL.

In turn, `CC(CCn1ccc(-c2ccc(CC#N)cc2)cc1=O)(C(=O)NO)S(C)(=O)=O` (stereo not drawn) [Example 129, 4-{4-[4-(cyanomethyl)phenyl]-2-oxopyridin-1(2H)-yl}-N-hydroxy-2-methyl-2-(methylsulfonyl)butanamide] gave an EC-1 (MIC) in assay [1] of 2 µg/mL. This molecule also showed a PA-7 (MIC) in assay [2] of 32 µg/mL.

For `CC(CCn1ccc(-c2cc(F)c(F)c(F)c2)cc1=O)(C(=O)NO)S(C)(=O)=O` (stereo not drawn) [Example 130, N-hydroxy-2-methyl-2-(methylsulfonyl)-4-[2-oxo-4-(3,4,5-trifluorophenyl)pyridin-1(2H)-yl]butanamide], the EC-1 (MIC) in assay [1] was determined as 16 µg/mL. Moreover, the PA-7 (MIC) in assay [2] is 8 µg/mL.

The molecule `CC(CCn1ccc(-c2ccccc2OCC(F)(F)F)cc1=O)(C(=O)NO)S(C)(=O)=O` (stereo not drawn) [Example 131, N-hydroxy-2-methyl-2-(methylsulfonyl)-4-{2-oxo-4-[2-(2,2,2-trifluoroethoxy)phenyl]pyridin-1(2H)-yl}butanamide] showed an EC-1 (MIC) in assay [1] greater than 64 µg/mL. Further, the PA-7 (MIC) in assay [2] was greater than 64 µg/mL.

`CC(CCn1ccc(-c2ccccc2C#N)cc1=O)(C(=O)NO)S(C)(=O)=O` (stereo not drawn) [Example 132, 4-[4-(2-cyanophenyl)-2-oxopyridin-1(2H)-yl]-N-hydroxy-2-methyl-2-(methylsulfonyl)butanamide] registered an EC-1 (MIC) in assay [1] greater than 64 µg/mL. For the same molecule, in assay [2], the PA-7 (MIC) is greater than 64 µg/mL.

Take `CC(=O)Nc1cccc(-c2ccn(CCC(C)(C(=O)NO)S(C)(=O)=O)c(=O)c2)c1` (stereo not drawn) [Example 133, 4-[4-(3-acetamidophenyl)-2-oxopyridin-1(2H)-yl]-N-hydroxy-2-methyl-2-(methylsulfonyl)butanamide]: in assay [1], the EC-1 (MIC) is greater than 64 µg/mL. In assay [2], this molecule returned a PA-7 (MIC) greater than 64 µg/mL.

Regarding `CC(CCn1ccc(-c2ccc(F)c(F)c2)cc1=O)(C(=O)NO)S(C)(=O)=O` (stereo not drawn) [Example 134, 4-[4-(3,4-difluorophenyl)-2-oxopyridin-1(2H)-yl]-N-hydroxy-2-methyl-2-(methylsulfonyl)butanamide], the EC-1 (MIC) in assay [1] was found to be 4 µg/mL. Moreover, the PA-7 (MIC) in assay [2] was 4 µg/mL.

`CC(CCn1ccc(-c2ccc(Cl)c(C#N)c2)cc1=O)(C(=O)NO)S(C)(=O)=O` (stereo not drawn) [Example 135, 4-[4-(4-chloro-3-cyanophenyl)-2-oxopyridin-1(2H)-yl]-N-hydroxy-2-methyl-2-(methylsulfonyl)butanamide] showed an EC-1 (MIC) in assay [1] of 16 µg/mL. The PA-7 (MIC) in assay [2] is 16 µg/mL.

With `CCS(=O)(=O)c1ccc(-c2ccn(CCC(C)(C(=O)NO)S(C)(=O)=O)c(=O)c2)cc1` (stereo not drawn) [Example 136, 4-{4-[4-(ethylsulfonyl)phenyl]-2-oxopyridin-1(2H)-yl}-N-hydroxy-2-methyl-2-(methylsulfonyl)butanamide], the EC-1 (MIC) in assay [1] is greater than 64 µg/mL. Further, in assay [2], the PA-7 (MIC) is 64 µg/mL.

In assay [1], `CC(CCn1ccc(-c2cc(F)ccc2OC(F)(F)F)cc1=O)(C(=O)NO)S(C)(=O)=O` (stereo not drawn) [Example 137, 4-{4-[5-fluoro-2-(trifluoromethoxy)phenyl]-2-oxopyridin-1(2H)-yl}-N-hydroxy-2-methyl-2-(methylsulfonyl)butanamide] registered an EC-1 (MIC) greater than 64 µg/mL. Also, in assay [2], the PA-7 (MIC) was greater than 64 µg/mL.

As to `COc1ccc(-c2ccn(CCC(C)(C(=O)NO)S(C)(=O)=O)c(=O)c2)cc1OC` (stereo not drawn) [Example 138, 4-[4-(3,4-dimethoxyphenyl)-2-oxopyridin-1(2H)-yl]-N-hydroxy-2-methyl-2-(methylsulfonyl)butanamide], in assay [1], the EC-1 (MIC) was determined as 64 µg/mL. In assay [2], this molecule gave a PA-7 (MIC) of 64 µg/mL.

For the molecule `COc1ccc(Oc2ccc(-c3ccn(CCC(C)(C(=O)NO)S(C)(=O)=O)c(=O)c3)cc2)cc1` (stereo not drawn) [Example 139, N-hydroxy-4-{4-[4-(4-methoxyphenoxy)phenyl]-2-oxopyridin-1(2H)-yl}-2-methyl-2-(methylsulfonyl)butanamide], the EC-1 (MIC) in assay [1] came out at 0.125 µg/mL. For the same molecule, the PA-7 (MIC) in assay [2] stood at 8 µg/mL.

`CC(=O)c1ccccc1-c1ccn(CCC(C)(C(=O)NO)S(C)(=O)=O)c(=O)c1` (stereo not drawn) [Example 140, 4-[4-(2-acetylphenyl)-2-oxopyridin-1(2H)-yl]-N-hydroxy-2-methyl-2-(methylsulfonyl)butanamide] gave an EC-1 (MIC) in assay [1] greater than 64 µg/mL. Moreover, the PA-7 (MIC) in assay [2] was greater than 64 µg/mL.

Take `CC(CCn1ccc(-c2ccc(Cl)cc2)cc1=O)(C(=O)NO)S(C)(=O)=O` (stereo not drawn) [Example 141, 4-[4-(4-chlorophenyl)-2-oxopyridin-1(2H)-yl]-N-hydroxy-2-methyl-2-(methylsulfonyl)butanamide]: in assay [1], the EC-1 (MIC) turned out to be 1 µg/mL. In addition, in assay [2], the PA-7 (MIC) was 1 µg/mL.

Consider `CC(CCn1ccc(-c2ccc(Cl)c(F)c2)cc1=O)(C(=O)NO)S(C)(=O)=O` (stereo not drawn) [Example 142, 4-[4-(4-chloro-3-fluorophenyl)-2-oxopyridin-1(2H)-yl]-N-hydroxy-2-methyl-2-(methylsulfonyl)butanamide], for which the EC-1 (MIC) in assay [1] is 1 µg/mL. This molecule registered a PA-7 (MIC) in assay [2] of 1 µg/mL.

`CC(CCn1ccc(-c2cccc(C(F)(F)F)c2)cc1=O)(C(=O)NO)S(C)(=O)=O` (stereo not drawn) [Example 143, N-hydroxy-2-methyl-2-(methylsulfonyl)-4-{2-oxo-4-[3-(trifluoromethyl)phenyl]pyridin-1(2H)-yl}butanamide] had an EC-1 (MIC) in assay [1] of 4 µg/mL. The same molecule gave a PA-7 (MIC) in assay [2] of 8 µg/mL.

`CC(CCn1ccc(-c2cccc(CO)c2)cc1=O)(C(=O)NO)S(C)(=O)=O` (stereo not drawn) [Example 144, N-hydroxy-4-{4-[3-(hydroxymethyl)phenyl]-2-oxopyridin-1(2H)-yl}-2-methyl-2-(methylsulfonyl)butanamide] had an EC-1 (MIC) in assay [1] greater than 64 µg/mL. Further, the PA-7 (MIC) in assay [2] was greater than 64 µg/mL.

`CC(CCn1ccc(-c2ccc(OC(F)(F)F)cc2)cc1=O)(C(=O)NO)S(C)(=O)=O` (stereo not drawn) [Example 145, N-hydroxy-2-methyl-2-(methylsulfonyl)-4-{2-oxo-4-[4-(trifluoromethoxy)phenyl]pyridin-1(2H)-yl}butanamide] registered an EC-1 (MIC) in assay [1] of 1 µg/mL. The molecule further yielded a PA-7 (MIC) in assay [2] of 2 µg/mL.

For `CC(C)NC(=O)c1ccc(-c2ccn(CCC(C)(C(=O)NO)S(C)(=O)=O)c(=O)c2)cc1` (stereo not drawn) [Example 146, 4-{1-[4-(hydroxyamino)-3-methyl-3-(methylsulfonyl)-4-oxobutyl]-2-oxo-1,2-dihydropyridin-4-yl}-N-isopropylbenzamide], the EC-1 (MIC) in assay [1] was greater than 64 µg/mL. The molecule further yielded a PA-7 (MIC) in assay [2] greater than 64 µg/mL.
